In patent US20240261312A1 (priority 2021, published 2024):
Where “and” joins values, the source holds several entries; their conditions need not be identical. Equal entries are not always repeated. Where two headings read alike, the source gives them in different places.

Assays:
[1] = in horses; cited from earlier work
[2] = in turkeys; cited from earlier work
[3] = in adult dogs; cited from earlier work
[4] = cited from earlier work
[5] = in cats; cited from earlier work
[6] = cited from earlier work; remark: listed apart in the source
dengue fever virus = experiment: Antiviral activity against dengue fever virus; assay type: cell-based
BT cells = settings: concentrations of up to 1.0 microg/mL
[7] = system: bovine viral diarrhea virus (BVDV); assay type: cell-based; settings: MDBK cells, 48-h time point
MARC 145 cells = settings: concentrations of up to 1.0 microg/mL
MDBK cells = settings: concentrations of up to 1.0 microg/mL
bovine coronavirus (BCV) = assay type: cell-based; settings: HRT cells, therapeutic
[8] = system: Omsk hemorrhagic fever virus; assay type: cell-based
[9] = system: Human adenovirus (HAdv-C5); experiment: Antiviral activity against human adenovirus; assay type: cell-based
HRT cells = settings: concentrations of up to 1.0 microg/mL
[10] = system: Alkhuma hemorrhagic fever virus; assay type: cell-based
[11] = system: bovine viral diarrhea virus (BVDV); assay type: cell-based; settings: 30 min preincubation, 0.1 to 1.0 ug/ml oleandrin
cells = settings: up to concentrations of 1 microg/mL
rhinovirus = experiment: Antiviral activity against rhinovirus; assay type: cell-based; settings: concentrations and assays employed herein
murine coronavirus = settings: reported; cited from earlier work
[12] = system: Kyasanur forest disease virus; assay type: cell-based

For C[C@H]1O[C@@H](O[C@H]2[C@@H](O)C[C@H](O[C@H]3[C@@H](O)C[C@H](O[C@H]4CC[C@@]5(C)[C@H](CC[C@@H]6[C@@H]5C[C@@H](O)[C@]5(C)[C@@H](C7=CC(=O)OC7)CC[C@]65O)C4)O[C@@H]3C)O[C@@H]2C)C[C@H](O)[C@@H]1O [digoxin], the half-life [1] is given as 16 to 18 h and 10 to 23 h, the half-life [2] is given as 10 to 12 h and the half-life [3] is given as 4 to 6 h. The half-life ([4]; in calves) was 5 to 7 h, the half-life ([4]; in cattle) was 7 to 9 h and the half-life [5] was 9 to 12 h. The half-life ([6]; in ewes and lambs) was 13 to 15 h and the half-life ([6]; in sheep) was 7 to 8 h.

With CO[C@H]1C[C@H](O[C@H]2CC[C@@]3(C)[C@H](CC[C@@H]4[C@@H]3CC[C@]3(C)[C@@H](C5=CC(=O)OC5)[C@@H](OC(C)=O)C[C@]43O)C2)O[C@@H](C)[C@@H]1O [oleandrin] the antiviral activity (dengue fever virus) was “inactive”, the “toxicity to BT cells” value (BT cells) was “not toxic” and the “reduction of viral infectivity relative to control” value [7] was 98-100%. For the same molecule, the “toxicity to MARC 145 cells” value (MARC 145 cells) was “not toxic”, the “toxicity to MDBK cells” value (MDBK cells) was “not toxic” and the “concentration range over which efficacious” value (bovine coronavirus (BCV)) was ≥ 0.01 µg/mL. For the same molecule, the antiviral activity [8] was “inactive”, the antiviral activity [9] was “inactive” and the “toxicity to HRT cells” value (HRT cells) was “not toxic”. For the same molecule, the antiviral activity [10] was “inactive”, the “inhibition of infectivity of progeny” value [11] was 85-93% and the “toxicity by release of lactate dehydrogenase” value (cells) was “no additional toxicity over control vehicle”. The “antiviral activity (inhibition of viral replication)” value (rhinovirus) was “inactive”, the antiviral activity (murine coronavirus) was “inactive” and the antiviral activity [12] was “inactive”.
